Experimental data as given in patent US11254690B2, “PTEFb inhibiting macrocyclic compounds” (BAYER AKTIENGESELLSCHAFT, priority 2017, dated 2022).

Experiments:
CDK9/CycT1 = molecular target: T1, CDK9/CycT1 (Homo sapiens, UniProt P50750); test: CDK9/CycT1 high ATP kinase assay (TR-FRET, 2 mM ATP); type: biochemical; conditions: for IC50: 2 mM ATP, Method 1b, lower limit for IC50s about 1-2 nM; for Selectivity high ATP CDK9 over high ATP CDK2: IC50 (high ATP CDK2)/IC50 (high ATP CDK9): ratio from Methods 1b and 2b, minimal values for IC50s near the assay limit
T1 construct: Recombinant full-length His-tagged human CDK9 and CycT1; His; purchased Life Technologies PV4131; host or cells: insect cells
T1 sequence (P50750 whole entry): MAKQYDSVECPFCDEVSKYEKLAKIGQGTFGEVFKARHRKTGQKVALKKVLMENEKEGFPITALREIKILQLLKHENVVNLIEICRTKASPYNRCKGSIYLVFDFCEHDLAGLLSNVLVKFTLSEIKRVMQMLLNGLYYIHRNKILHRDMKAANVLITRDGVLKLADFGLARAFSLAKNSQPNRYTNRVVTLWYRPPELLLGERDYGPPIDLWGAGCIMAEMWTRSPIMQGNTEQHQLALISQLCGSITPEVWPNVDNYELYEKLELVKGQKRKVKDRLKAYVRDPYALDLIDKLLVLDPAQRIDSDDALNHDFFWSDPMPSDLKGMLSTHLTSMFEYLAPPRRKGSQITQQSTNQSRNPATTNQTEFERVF
T1 sequence (O60563 whole entry partner): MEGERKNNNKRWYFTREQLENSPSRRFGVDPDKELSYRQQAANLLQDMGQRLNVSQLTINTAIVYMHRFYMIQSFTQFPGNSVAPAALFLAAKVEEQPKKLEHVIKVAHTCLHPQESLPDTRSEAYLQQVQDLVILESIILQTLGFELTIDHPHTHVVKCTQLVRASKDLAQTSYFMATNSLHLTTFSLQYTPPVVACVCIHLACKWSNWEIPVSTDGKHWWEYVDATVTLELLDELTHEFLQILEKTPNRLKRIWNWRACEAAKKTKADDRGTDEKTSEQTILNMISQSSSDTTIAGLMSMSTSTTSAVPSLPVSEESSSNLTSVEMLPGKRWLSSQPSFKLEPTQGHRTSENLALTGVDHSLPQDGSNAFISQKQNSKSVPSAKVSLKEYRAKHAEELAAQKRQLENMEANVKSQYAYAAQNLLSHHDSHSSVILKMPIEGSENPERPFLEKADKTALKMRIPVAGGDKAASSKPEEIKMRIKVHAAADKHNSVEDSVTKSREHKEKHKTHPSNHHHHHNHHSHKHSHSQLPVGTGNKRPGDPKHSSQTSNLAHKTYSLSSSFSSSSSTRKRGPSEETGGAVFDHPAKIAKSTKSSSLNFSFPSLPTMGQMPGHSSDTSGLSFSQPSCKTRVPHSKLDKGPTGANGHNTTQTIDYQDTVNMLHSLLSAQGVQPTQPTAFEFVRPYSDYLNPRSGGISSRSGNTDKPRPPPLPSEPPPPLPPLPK
Protocol: 1b. CDK9/CycT1 High ATP Kinase Assay
CDK9/CycT1-inhibitory activity of compounds of the present invention at a high ATP concentration after preincubation of enzyme and test compounds was quantified employing the CDK9/CycT1 TR-FRET assay as described in the following paragraphs.
Recombinant full-length His-tagged human CDK9 and CycT1, expressed in insect cells and purified by Ni-NTA affinity chromatography, were purchased from Life Technologies (Cat. No PV4131). As substrate for the kinase reaction biotinylated peptide biotin-Ttds-YISPLKSPYKISEG (C-terminus in amide form) was used which can be purchased e.g. form the company JERINI peptide technologies (Berlin, Germany).
(§1) For the assay 50 nl of a 100 fold concentrated solution of the test compound in DMSO was pipetted into either a black low volume 384 well microtiter plate or a black 1536 well microtiter plate (both Greiner Bio-One, Frickenhausen, Germany), 2 μl of a solution of CDK9/CycT1 in aqueous assay buffer [50 mM Tris/HCl pH 8.0, 10 mM MgCl2, 1.0 mM dithiothreitol, 0.1 mM sodium ortho-vanadate, 0.01% (v/v) Nonidet-P40 (Sigma)] were added and the mixture was incubated for 15 min at 22° C. to allow pre-binding of the test compounds to the enzyme before the start of the kinase reaction. […] The concentration of CDK9/CycT1 was adjusted depending of the activity of the enzyme lot and was chosen appropriate to have the assay in the linear range, typical concentrations were in the range of 0.5 μg/ml. The reaction was stopped by the addition of 3 μl of a solution of TR-FRET detection reagents (0.33 μM streptavidine-XL665 [Cisbio Bioassays, Codolet, France] and 1.67 nM anti-RB(pSer807/pSer811)-antibody from BD Pharmingen [#558389] and 2 nM LANCE EU-W1024 labeled anti-mouse IgG antibody [Perkin-Elmer, product no. AD0077]) in an aqueous EDTA-solution (167 mM EDTA, 0.2% (w/v) bovine serum albumin in 100 mM HEPES pH 7.5).
(§2) The resulting mixture was incubated 1 h at 22° C. to allow the formation of complex between the phosphorylated biotinylated peptide and the detection reagents. Subsequently the amount of phosphorylated substrate was evaluated by measurement of the resonance energy transfer from the Eu-chelate to the streptavidine-XL. Therefore, the fluorescence emissions at 620 nm and 665 nm after excitation at 350 nm was measured in a TR-FRET reader, e.g. a Pherastar (BMG Labtechnologies, Offenburg, Germany) or a Viewlux (Perkin-Elmer). The ratio of the emissions at 665 nm and at […] was taken as the measure for the amount of phosphorylated substrate. The data were normalised (enzyme reaction without inhibitor=0% inhibition, all other assay components but no enzyme=100% inhibition).

CDK2/CycE = molecular target: T2, CDK2/CycE (Homo sapiens, UniProt P24941); test: CDK2/CycE high ATP kinase assay (TR-FRET, 2 mM ATP); type: biochemical; conditions: Method 2b
T2 construct: GST; purchased ProQinase GmbH (Freiburg, Germany); host or cells: insect cells (Sf9)
Protocol: 2b. CDK2/CycE High ATP Kinase Assay
CDK2/CycE-inhibitory activity of compounds of the present invention at 2 mM adenosine-tri-phosphate (ATP) was quantified employing the CDK2/CycE TR-FRET (TR-FRET=Time Resolved Fluorescence Energy Transfer) assay as described in the following paragraphs.
Recombinant fusion proteins of GST and human CDK2 and of GST and human CycE, expressed in insect cells (Sf9) and purified by Glutathion-Sepharose affinity chromatography, were purchase from ProQinase GmbH (Freiburg, Germany). As substrate for the kinase reaction biotinylated peptide biotin-Ttds-YISPLKSPYKISEG (C-terminus in amid form) was used which can be purchased e.g. form the company JERINI peptide technologies (Berlin, Germany).
as §1, with “CDK2/CycE” for “CDK9/CycT1”, “about 10 ng/ml.” for “in the range of 0.5 μg/ml.”, “(0.333” for “(0.33”, “AD0077, as an alternative a Terbium-cryptate-labeled anti-mouse IgG antibody from Cisbio Bioassays can be used])” for “AD0077])”
as §2

SMILES	IC50 (CDK9/CycT1) [nM]	Selectivity high ATP CDK9 over high ATP CDK2: IC50 (high ATP CDK2)/IC50 (high ATP CDK9) (CDK9/CycT1)	IC50 (CDK2/CycE) [nM]
CSCc1cc2nc(c1)OC(C)CCCCOc1cc(ccc1F)-c1cc(ncc1F)N2 (racemic) [Example 18, (rac)-3,21-difluoro-14-methyl-10-[(methylsulfanyl)methyl]-13,19-dioxa-5,7,25-triazatetracyclo[18.3.1.1^2,6.1^8,12]hexacosa-1(24),2(26),3,5,8(25),9,11,20,22-nonaene]	32	>625	> 20000
CSCc1cc2nc(c1)OC(C)CCCCCOc1cc(ccc1F)-c1cc(ncc1F)N2 (racemic) [Example 23, (rac)-3,22-difluoro-14-methyl-10-[(methylsulfanyl)methyl]-13,20-dioxa-5,7,26-triazatetracyclo[19.3.1.1^2,6.1^8,12]heptacosa-1(25),2(27),3,5,8(26),9,11,21,23-nonaene]	67	>298	> 20000
CSCc1cc2nc(c1)OC(C)CCCCOc1cc(ccc1F)-c1cc(ncc1F)N2 (single isomer, unassigned) [Example 19, 3,21-difluoro-14-methyl-10-[(methylsulfanyl)methyl]-13,19-dioxa-5,7,25-triazatetracyclo[18.3.1.1^2,6.1^8,12]hexacosa-1(24),2(26),3,5,8(25),9,11,20,22-nonaene]	138	>145	> 20000
CSCc1cc2nc(c1)OC(C)CCCCCOc1cc(ccc1F)-c1cc(ncc1F)N2 (single isomer, unassigned) [Example 24, 3,22-difluoro-14-methyl-10-[(methylsulfanyl)methyl]-13,20-dioxa-5,7,26-triazatetracyclo[19.3.1.1^2,6.1^8,12]heptacosa-1(25),2(27),3,5,8(26),9,11,21,23-nonaene]	68	>294	> 20000
CSCc1cc2nc(c1)OC(C)CCCCCOc1cc(ccc1F)-c1cc(ncc1F)N2 (single isomer, unassigned) [Example 25, 3,22-difluoro-14-methyl-10-[(methylsulfanyl)methyl]-13,20-dioxa-5,7,26-triazatetracyclo[19.3.1.1^2,6.1^8,12]heptacosa-1(25),2(27),3,5,8(26),9,11,21,23-nonaene]	93	>215	> 20000

Compounds with a lower IC50 (CDK9/CycT1), results first:

IC50 (CDK9/CycT1) [nM]	Selectivity high ATP CDK9 over high ATP CDK2: IC50 (high ATP CDK2)/IC50 (high ATP CDK9) (CDK9/CycT1)	IC50 (CDK2/CycE) [nM]	SMILES
4	1613	6450	CSCc1cc2nc(c1)OC(C)CCCOc1cc(ccc1F)-c1cc(ncc1F)N2 (single isomer, unassigned) [Example 12, 3,20-difluoro-14-methyl-10-[(methylsulfanyl)methyl]-13,18-dioxa-5,7,24-triazatetracyclo[17.3.1.1^2,6.1^8,12]pentacosa-1(23),2(25),3,5,8(24),9,11,19,21-nonaene]
4	178	711	CSCc1cc2nc(c1)OC(C)CCCOc1cc(ccc1F)-c1cc(ncc1F)N2 (single isomer, unassigned) [Example 13, 3,20-difluoro-14-methyl-10-[(methylsulfanyl)methyl]-13,18-dioxa-5,7,24-triazatetracyclo[17.3.1.1^2,6.1^8,12]pentacosa-1(23),2(25),3,5,8(24),9,11,19,21-nonaene]
23	548	12600	CSCc1cc2nc(c1)OC(C)CCCCOc1cc(ccc1F)-c1cc(ncc1F)N2 (single isomer, unassigned) [Example 20, 3,21-difluoro-14-methyl-10-[(methylsulfanyl)methyl]-13,19-dioxa-5,7,25-triazatetracyclo[18.3.1.1^2,6.1^8,12]hexacosa-1(24),2(26),3,5,8(25),9,11,20,22-nonaene]
